Source: US11149021B2, “N-(azaaryl)cyclolactam-1-carboxamide derivative, preparation method therefor, and use thereof” (Abbisko Therapeutics Co., Ltd., priority 2017, dated 2021)
Where two headings read alike, the source gives them in different places.

Experiments:
CSF-1R = molecular target: T1, CSF-1R (Homo sapiens, UniProt P07333); assay: CSF-1R in vitro biochemical kinase study (ADP-Glo assay)
T1 construct: 3.95 nM of CSF-1R, 500 μM of ATP

[1] = tested on: M-NFS-60 mouse myeloid leukemia lymphocytes; assay: CSF-1R cell proliferation study (Cell Titer Glo); format: cell-based; details: Lymphocyte, 72 h;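 further: M-CSF-driven proliferation, viable cells quantified as ATP by luminescence, compounds tested as 3-fold serial dilutions, values from four-parameter curve fits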
[2] = read-out: Cytological experiment CS1-1R Absolute IC50 (nM)
[3] = read-out: Cytological experiment CSF-1R IC50 (nM)
[4] = M-NFS-60 cells, M-CSF, 3 days, CTG, * = average of multiple tests, read-out: Cytological experiment CSF-1R IC50
[5] = M-NFS-60 cells, M-CSF, 3 days, CTG, absolute half maximal inhibition, * = average of multiple tests, read-out: Cytological experiment CS1-1R Absolute IC50

T1 sequence (P07333 20-972): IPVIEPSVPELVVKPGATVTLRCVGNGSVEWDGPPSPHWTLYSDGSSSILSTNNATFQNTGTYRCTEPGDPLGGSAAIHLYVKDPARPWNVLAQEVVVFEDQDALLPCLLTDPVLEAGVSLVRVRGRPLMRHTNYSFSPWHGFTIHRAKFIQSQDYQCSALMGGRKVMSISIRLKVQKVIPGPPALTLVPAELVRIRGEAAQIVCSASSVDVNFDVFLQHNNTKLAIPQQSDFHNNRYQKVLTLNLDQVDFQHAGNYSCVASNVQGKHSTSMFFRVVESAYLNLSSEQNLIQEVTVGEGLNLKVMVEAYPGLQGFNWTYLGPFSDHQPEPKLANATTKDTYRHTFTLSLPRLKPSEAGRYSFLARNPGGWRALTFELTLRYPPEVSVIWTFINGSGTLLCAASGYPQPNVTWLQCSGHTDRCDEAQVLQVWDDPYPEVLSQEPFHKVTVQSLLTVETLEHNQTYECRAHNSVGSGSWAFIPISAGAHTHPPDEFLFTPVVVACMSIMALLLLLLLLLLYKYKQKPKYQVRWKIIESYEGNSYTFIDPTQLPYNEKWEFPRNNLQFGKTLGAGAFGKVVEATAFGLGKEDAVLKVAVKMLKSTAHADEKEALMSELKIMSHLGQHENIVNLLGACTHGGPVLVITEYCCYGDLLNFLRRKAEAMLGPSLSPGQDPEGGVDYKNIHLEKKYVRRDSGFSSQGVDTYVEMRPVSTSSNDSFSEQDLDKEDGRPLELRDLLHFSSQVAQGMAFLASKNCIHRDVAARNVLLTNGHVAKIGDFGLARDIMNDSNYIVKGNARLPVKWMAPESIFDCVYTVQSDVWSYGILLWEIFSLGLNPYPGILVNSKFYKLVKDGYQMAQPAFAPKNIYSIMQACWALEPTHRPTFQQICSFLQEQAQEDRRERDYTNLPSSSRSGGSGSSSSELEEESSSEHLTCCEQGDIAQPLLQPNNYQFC

IC50 (CSF-1R) [nM] | IC50 [1, 2] [nM] | IC50 [1, 3] [nM] | IC50 [1, 4] [nM] | IC50 [1, 5] [nM] | Compound
2280 | > 2000 | > 2000 | – | – | CNc1cc(Oc2ccc(NC(=O)N3CCC(C)(C)C3=O)nc2C)ccn1 [Example 42, 3,3-dimethyl-N-(6-methyl-5-((2-(methylamino)pyridin-4-yl)oxy)pyridin-2-yl)-2-oxopyrrolidine-1-carboxamide]
324 | 782 | 667 | – | – | Cc1nc(NC(=O)N2CCC(C)C2=O)ccc1Oc1ccnc(-c2cnn(C)c2)c1 (stereo not shown) [Example 32, 3-methyl-N-(6-methyl-5-((2-(1-methyl-1H-pyrazol-4-yl)pyridin-4-yl)oxy)pyridin-2-yl)-2-oxopyrrolidine-1-carboxamide]
98.3 | 1160 | 1380 | – | – | CCCC1(CCC)CCN(C(=O)Nc2ccc(Oc3ccnc(-c4cnn(C)c4)c3)c(C)n2)C1=O [Example 30, N-(6-methyl-5-((2-(1-methyl-1H-pyrazol-4-yl)pyridin-4-yl)oxy)pyridin-2-yl)-2-oxo-3,3-dipropylpyrrolidine-1-carboxamide]
207 | 140 | 141 | – | – | COCCC1(C)CCN(C(=O)Nc2ccc(Oc3ccnc(-c4cnn(C)c4)c3)c(C)n2)C1=O (stereo not shown) [Example 37, 3-(2-methoxyethyl)-3-methyl-N-(6-methyl-5-((2-(1-methyl-1H-pyrazol-4-yl)pyridine-4-yl)oxy)pyridin-2-yl)-2-oxopyrrolidine-1-carboxamide]
20.2 | 35 | 48.3 | – | – | [2H]C([2H])([2H])n1cc(-c2cc(Oc3ccc(NC(=O)N4CCCC(C)(C)C4=O)nc3C)ccn2)cn1 [Example 39, 3,3-dimethyl-N-(6-methyl-5-((2-(1-(methyl-d3)-1H-pyrazol-4-yl)pyridin-4-yl)oxy)pyridin-2-yl)-2-oxopiperidine-1-carboxamide]
– | – | – | 500 | 727 | Cc1nc(NC(=O)N2CCC(C)(OCc3ccccc3)C2=O)ccc1Oc1ccnc(-c2cnn(C)c2)c1 (stereo not shown) [Example 36, 3-(benzyloxy)-3-methyl-N-(6-methyl-5-((2-(1-methyl-1H-pyrazol-4-yl)pyridin-4-yl)oxy)pyridin-2-yl)-2-oxopyrrolidine-1-carboxamide]
135 | 441 | 487 | – | – | CNC(=O)c1cc(Oc2ccc(NC(=O)N3CCC(C)(C)C3=O)nc2C)ccn1 [Example 27, 4-((6-(3,3-dimethyl-2-oxopyrrolidine-1-carboxamido)-2-methylpyridin-3-yl)oxy)-N-methylpicolinamide]
1470 | – | – | – | – | Cc1nc(NC(=O)N2CCCC2=O)ccc1Oc1ccnc(-c2cnn(C)c2)c1 [Example 38, N-(6-methyl-5-((2-(1-methyl-1H-pyrazol-4-yl)pyridin-4-yl)oxy)pyridin-2-yl)-2-oxopyrrolidine-1-carboxamide]

Second part, the molecule before the results:

Compound | IC50 (CSF-1R) [nM] | IC50 [1, 2] [nM] | IC50 [1, 3] [nM] | IC50 [1, 4] [nM] | IC50 [1, 5] [nM]
Cc1nc(NC(=O)N2CCC(C)(C)C2=O)ccc1Oc1ccnc(-c2cnn(C(C)C)c2)c1 [Example 13, N-(5-((2-(1-isopropyl-1H-pyrazol-4-yl)pyridin-4-yl)oxy)-6-methylpyridin-2-yl)-3,3-dimethyl-2-oxopyrrolidine-1-carboxamide] | 99.7 | 245 | 263 | – | –
Cc1nc(NC(=O)N2CCC(C)(C)C2=O)ccc1Oc1ccnc(NC(=O)N2CCN(C)CC2)c1 [Example 24, N-(4-((6-(3,3-dimethyl-2-oxopyrrolidine-1-carboxamido)-2-methylpyridin-3-yl)oxy)pyridin-2-yl)-4-methylpiperazine-1-carboxamide] | 56.6 | 164 | 221 | – | –
CCc1nc(NC(=O)N2CCC(C)(C)C2=O)ccc1Oc1ccnc(-c2cnn(C)c2)c1 [Example 3, N-(6-ethyl-5-((2-(1-methyl-1H-pyrazol-4-yl)pyridin-4-yl)oxy)pyridin-2-yl)-3,3-dimethyl-2-oxopyrrolidine-1-carboxamide] | 229 | 687 | 667 | – | –
Cc1nc(NC(=O)N2CCC(C)(C)C2=O)ccc1Oc1ccnc(-c2cnn(C3COC3)c2)c1 [Example 18, 3,3-dimethyl-N-(6-methyl-5-((2-(1-(oxetan-3-yl)-1H-pyrazol-4-yl)pyridin-4-yl)oxy)pyridin-2-yl)-2-oxopyrrolidine-1-carboxamide] | – | – | – | 125 | 114
Cc1nc(NC(=O)N2CCC(C)(C)C2=O)ccc1Oc1ccnc(-c2cnn([C@H]3CCOC3)c2)c1 [Example 12, (S)-3,3-dimethyl-N-(6-methyl-5-((2-(1-(tetrahydrofuran-3-yl)-1H-pyrazol-4-yl)pyridin-4-yl)oxy)pyridin-2-yl)-2-oxopyrrolidine-1-carboxamide] | 71.7 | 134 | 158 | – | –
Cc1nc(NC(=O)N2CCC(C)(C)C2=O)ccc1Oc1ccnc(-c2cn[nH]c2)c1 [Example 9, N-(5-((2-(1H-pyrazol-4-yl)pyridin-4-yl)oxy)-6-methylpyridin-2-yl)-3,3-dimethyl-2-oxopyrrolidine-1-carboxamide] | 80.2 | 193 | 216 | – | –
Cc1nc(NC(=O)N2CCC(C)(C)C2=O)ccc1Oc1ccnc(NC(=O)C2CCN(C)CC2)c1 [Example 25, N-(4-((6-(3,3-dimethyl-2-oxopyrrolidine-1-carboxamido)-2-methylpyridin-3-yl)oxy)pyridin-2-yl)-1-methylpiperidine-4-carboxamide] | 1120 | 1990 | 1920 | – | –
CC(=O)Nc1cc(Oc2ccc(NC(=O)N3CCC(C)(C)C3=O)nc2C)ccn1 [Example 23, N-(5-((2-acetylamidopyridin-4-yl)oxy)-6-methylpyridin-2-yl)-3,3-dimethyl-2-oxopyrrolidine-1-carboxamide] | 83 | 384 | 620 | – | –
Cc1ncc(-c2cc(Oc3ccc(NC(=O)N4CCC(C)(C)C4=O)nc3C)ccn2)s1 [Example 5, 3,3-dimethyl-N-(6-methyl-5-((2-(2-methylthiazol-5-yl)pyridin-4-yl)oxy)pyridin-2-yl)-2-oxopyrrolidine-1-carboxamide] | 54.7 | 334 | 454 | – | –
Cc1nc(NC(=O)N2CCC(C)(C)C2=O)ccc1Oc1ccnc(NC(=O)C2CC2)c1 [Example 26, N-(5-((2-(cyclopropane-carboxamido)pyridin-4-yl)oxy)-6-methylpyridin-2-yl)-3,3-dimethyl-2-oxopyrrolidine-1-carboxamide] | 75.2 | 157 | 161 | – | –
Cc1cc(-c2cc(Oc3ccc(NC(=O)N4CCC(C)(C)C4=O)nc3C)ccn2)ccn1 [Example 4, 3,3-dimethyl-N-(6-methyl-5-((2′-methyl-[2,4′-bipyridin]-4-yl)oxy)pyridin-2-yl)-2-oxopyrrolidine-1-carboxamide] | 42.9 | 213 | 216 | – | –
Cc1nc(NC(=O)N2CCC(C)(C)C2=O)ccc1Oc1ccnc(-c2cnn(C)c2)n1 [Example 22, 3,3-dimethyl-N-(6-methyl-5-((2-(1-methyl-1H-pyrazol-4-yl)pyrimidin-4-yl)oxy)pyridin-2-yl)-2-oxopyrrolidine-1-carboxamide] | 249 | 500 | 500 | – | –
Cc1nc(NC(=O)N2CCC(C)(C)C2=O)ccc1Oc1ccnc(-c2cn(C)cn2)c1 [Example 19, 3,3-dimethyl-N-(6-methyl-5-((2-(1-methyl-1H-imidazol-4-yl)pyridin-4-yl)oxy)pyridin-2-yl)-2-oxopyrrolidine-1-carboxamide] | 176 | 647 | 644 | – | –
CCCn1cc(-c2cc(Oc3ccc(NC(=O)N4CCC(C)(C)C4=O)nc3C)ccn2)cn1 [Example 14, 3,3-dimethyl-N-(6-methyl-5-((2-(1-propyl-1H-pyrazol-4-yl)pyridin-4-yl)oxy)pyridin-2-yl)-2-oxopyrrolidine-1-carboxamide] | 46.4 | 115 | 118 | – | –
Cc1nc(NC(=O)N2CCC(C)(C)C2=O)ccc1Oc1ccnc(-c2cnn(C3CCN(C)C3)c2)c1 (stereo not shown) [Example 17] | 101 | – | – | – | –
COCCn1cc(-c2cc(Oc3ccc(NC(=O)N4CCC(C)(C)C4=O)nc3C)ccn2)cn1 [Example 7, N-(5-((2-(1-(2-methoxyethyl)-1H-pyrazol-4-yl)pyridin-4-yl)oxy)-6-methylpyridin-2-yl)-3,3-dimethyl-2-oxopyrrolidine-1-carboxamide] | 72.5 | 203 | 222 | – | –
Cc1nc(NC(=O)N2CCC(C)(C)C2=O)ccc1Oc1ccnc(-c2cnn(CC(C)(C)O)c2)c1 [Example 16, N-(5-((2-(1-(2-hydroxy-2-methylpropyl)-1H-pyrazol-4-yl)pyridin-4-yl)oxy)-6-methylpyridin-2-yl)-3,3-dimethyl-2-oxopyrrolidine-1-carboxamide] | 230 | – | – | – | –
Cc1nc(NC(=O)N2CCC(C)(C)C2=O)ccc1Oc1ccnc(-c2cnn(CCN3CCOCC3)c2)c1 [Example 8, 3,3-dimethyl-N-(6-methyl-5-((2-(1-(2-morpholinoethyl)-1H-pyrazol-4-yl)pyridin-4-yl)oxy)pyridin-2-yl)-2-oxopyrrolidine-1-carboxamide] | 57.9 | 110 | 148 | – | –
